SMILES strings stand for the structures. Some results are limits rather than exact numbers.

One experiment deals with CYP3A4 (Homo sapiens, UniProt P08684). In words: Biological Test Example 6: CYP3A4 inhibition (erythromycin N-demethylation). It is filed as in vitro ADME.
The target of another experiment is T1, CYP2C9 (Homo sapiens, UniProt P11712).
T1 construct: purchased Invitrogen 2859; host or cells: insect cells infected with baculovirus (microsomes)
Kind of experiment: Biological Test Example 7: CYP2C9 inhibition (naproxen O-demethylation). It is filed as in vitro ADME.

The target of a further experiment is CYP2C19 (Homo sapiens, UniProt P33261). In words: Biological Test Example 8: CYP2C19 inhibition (diazepam N-demethylation). It is filed as in vitro ADME.
For a further experiment, the target named is 11β-HSD1 (Homo sapiens, UniProt P28845). Kind of experiment: biochemical. To be noted: for inhibition at 0.1 µM: read-out: Average % inhibition at 100 nM.
[1] abbreviates: Biological Test Example 1 IC50 (nM).
The mark [2] stands for this setting: IC50 Range, Biological Test Example 1.

Chain of CYP2C19 (P33261 whole entry): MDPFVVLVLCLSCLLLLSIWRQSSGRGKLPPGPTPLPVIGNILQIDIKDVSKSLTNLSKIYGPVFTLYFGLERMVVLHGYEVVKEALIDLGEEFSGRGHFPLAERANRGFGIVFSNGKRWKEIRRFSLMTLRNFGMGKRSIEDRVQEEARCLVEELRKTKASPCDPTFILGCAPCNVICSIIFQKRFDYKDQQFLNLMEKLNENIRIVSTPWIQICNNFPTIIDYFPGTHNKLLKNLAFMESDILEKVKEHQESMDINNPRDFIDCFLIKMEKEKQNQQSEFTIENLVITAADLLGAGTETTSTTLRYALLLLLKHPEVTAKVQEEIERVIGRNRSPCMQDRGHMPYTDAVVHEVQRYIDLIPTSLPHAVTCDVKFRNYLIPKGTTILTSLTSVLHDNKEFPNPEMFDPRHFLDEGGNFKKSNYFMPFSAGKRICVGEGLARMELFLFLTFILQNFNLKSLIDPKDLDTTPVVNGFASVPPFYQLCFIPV
Chain of CYP3A4 (P08684 whole entry): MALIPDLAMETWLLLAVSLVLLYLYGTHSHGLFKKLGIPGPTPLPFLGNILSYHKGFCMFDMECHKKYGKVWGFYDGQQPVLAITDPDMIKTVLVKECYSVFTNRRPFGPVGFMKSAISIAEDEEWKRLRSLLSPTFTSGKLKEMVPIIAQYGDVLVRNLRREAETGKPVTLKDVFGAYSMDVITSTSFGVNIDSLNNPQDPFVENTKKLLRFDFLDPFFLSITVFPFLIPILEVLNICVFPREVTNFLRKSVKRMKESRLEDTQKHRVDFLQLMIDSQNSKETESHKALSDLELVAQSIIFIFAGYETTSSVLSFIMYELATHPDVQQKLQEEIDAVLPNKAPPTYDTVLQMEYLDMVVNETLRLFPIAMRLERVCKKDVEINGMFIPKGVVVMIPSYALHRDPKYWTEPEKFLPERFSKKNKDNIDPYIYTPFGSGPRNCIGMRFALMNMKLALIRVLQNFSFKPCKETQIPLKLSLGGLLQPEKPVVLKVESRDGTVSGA
T1 sequence (P11712 whole entry): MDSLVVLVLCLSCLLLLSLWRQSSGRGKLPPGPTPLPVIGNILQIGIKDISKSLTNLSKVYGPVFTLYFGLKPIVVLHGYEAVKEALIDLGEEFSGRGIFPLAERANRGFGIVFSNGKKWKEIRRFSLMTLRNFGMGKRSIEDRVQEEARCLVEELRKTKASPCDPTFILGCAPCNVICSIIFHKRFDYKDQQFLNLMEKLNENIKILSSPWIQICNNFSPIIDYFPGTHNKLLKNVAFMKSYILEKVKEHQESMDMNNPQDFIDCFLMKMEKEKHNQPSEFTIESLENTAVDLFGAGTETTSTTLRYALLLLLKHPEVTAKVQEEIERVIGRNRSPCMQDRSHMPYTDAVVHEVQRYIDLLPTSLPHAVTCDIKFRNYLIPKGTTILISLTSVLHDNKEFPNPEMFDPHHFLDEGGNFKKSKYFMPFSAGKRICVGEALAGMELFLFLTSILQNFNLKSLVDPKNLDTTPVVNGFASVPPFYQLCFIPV
Chain of 11β-HSD1 (P28845 whole entry): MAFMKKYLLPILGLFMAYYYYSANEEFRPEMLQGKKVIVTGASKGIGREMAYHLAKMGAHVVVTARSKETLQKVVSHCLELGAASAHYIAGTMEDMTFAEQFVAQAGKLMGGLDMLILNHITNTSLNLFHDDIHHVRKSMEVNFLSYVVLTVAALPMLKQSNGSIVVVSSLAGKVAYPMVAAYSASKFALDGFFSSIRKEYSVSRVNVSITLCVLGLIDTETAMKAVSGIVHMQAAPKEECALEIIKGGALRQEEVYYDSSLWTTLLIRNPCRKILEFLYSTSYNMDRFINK

For orientation: IC50 means the concentration that inhibits the measured activity by half. A high value points to lower potency. Take `C[C@@H](c1ccc(-c2ccc(C(=O)N(C)C)nc2)cc1)N1CC[C@](CC(C)(C)O)(c2ccccc2)OC1=O` [EXAMPLE 170]: the IC50 against CYP3A4 worked out at 45.6 µM; against CYP2C9, 48.6 µM; against CYP2C19 it was 39.4 µM.
Take `C[C@@H](c1ccc(-c2cncs2)cc1)N1CC[C@](CC(C)(C)O)(c2ccccc2)OC1=O` [EXAMPLE 171, (S)-6-(2-Hydroxy-2-methyl-propyl)-6-phenyl-3-[(S)-1-(4-thiazol-5-yl-phenyl)-ethyl]-[1,3]oxazinan-2-one]: the concentration for half-maximal inhibition (IC50) against CYP3A4 was below 0.4 µM; on CYP2C9, 9.2 µM; at CYP2C19, 0.8 µM.
Regarding `C[C@@H](c1ccc(-c2nncs2)cc1)N1CC[C@](CC(C)(C)O)(c2ccccc2)OC1=O` [EXAMPLE 173, (S)-6-(2-Hydroxy-2-methyl-propyl)-6-phenyl-3-[(S)-1-(4-[1,3,4]thiadiazol-2-yl-phenyl)-ethyl]-[1,3]oxazinan-2-one], the results for the IC50 on CYP3A4, at CYP2C9 and against CYP2C19 were 25.1 µM, 27.2 µM and 33.6 µM, respectively.
In the same order, the values of `C[C@@H](c1ccc(-c2nccs2)cc1)N1CC[C@](CC(C)(C)O)(c2ccccc2)OC1=O` [EXAMPLE 174, (S)-6-(2-Hydroxy-2-methyl-propyl)-6-phenyl-3-[(S)-1-(4-thiazol-2-yl-phenyl)-ethyl]-[1,3]oxazinan-2-one] are 5.4 µM, 7.8 µM and 1 µM.
On to `C[C@@H](c1ccc(-c2cscn2)cc1)N1CC[C@](CC(C)(C)O)(c2ccccc2)OC1=O` [EXAMPLE 175, (S)-6-(2-Hydroxy-2-methyl-propyl)-6-phenyl-3-[(S)-1-(4-thiazol-4-yl-phenyl)-ethyl]-[1,3]oxazinan-2-one], for which the IC50 on CYP3A4 came to 9.7 µM; at CYP2C9, 29.8 µM; at CYP2C19 it was 1.8 µM.
Take `Cc1nc(C)c(-c2ccc([C@H](C)N3CC[C@](CC(C)(C)O)(c4ccccc4)OC3=O)cc2)s1` [EXAMPLE 176, 3-{(S)-1-[4-(2,4-Dimethyl-thiazol-5-yl)-phenyl]-ethyl}-(S)-6-(2-hydroxy-2-methyl-propyl)-6-phenyl-[1,3]oxazinan-2-one]: the IC50 on CYP3A4 turned out to be 7.5 µM; on CYP2C9, 6 µM; on CYP2C19, 7.9 µM.
In the same order, the values of `Cc1nn(C)c(C)c1-c1ccc([C@H](C)N2CC[C@](CC(C)(C)O)(c3ccccc3)OC2=O)cc1` [EXAMPLE 177, (S)-6-(2-Hydroxy-2-methyl-propyl)-6-phenyl-3-{(S)-1-[4-(1,3,5-trimethyl-1H-pyrazol-4-yl)-phenyl]-ethyl}-[1,3]oxazinan-2-one] are above 50 µM, 8.8 µM and 17.7 µM.
Regarding `C[C@@H](c1ccc(-c2cnn(C)c2)cc1)N1CC[C@](CC(C)(C)O)(c2ccccc2)OC1=O` [EXAMPLE 178, (S)-6-(2-Hydroxy-2-methyl-propyl)-3-{(S)-1-[4-(1-methyl-1H-pyrazol-4-yl)-phenyl]-ethyl}-6-phenyl-[1,3]oxazinan-2-one], the results for the IC50 at CYP3A4, on CYP2C9 and against CYP2C19 were above 50 µM, 21.3 µM and above 50 µM, respectively.
In the case of `C[C@@H](c1ccc(-c2nnc(C(F)(F)F)s2)cc1)N1CC[C@](CC(C)(C)O)(c2ccccc2)OC1=O` [EXAMPLE 179, (S)-6-(2-Hydroxy-2-methyl-propyl)-6-phenyl-3-{(S)-1-[4-(5-trifluoromethyl-[1,3,4]thiadiazol-2-yl)-phenyl]-ethyl}-[1,3]oxazinan-2-one], the IC50 against CYP3A4 was 21.1 µM; at CYP2C9, 10.7 µM; at CYP2C19, 17 µM.
The like results for `Cc1ncc(-c2ccc([C@H](C)N3CC[C@](CC(C)(C)O)(c4ccccc4)OC3=O)cc2)s1` [EXAMPLE 180, (S)-6-(2-Hydroxy-2-methyl-propyl)-3-{(S)-1-[(2-methyl-4-thiazol-5-yl)-phenyl]-ethyl}-6-phenyl-[1,3]oxazinan-2-one] were, in that order, 9.8 µM, 9.2 µM and 14.4 µM.
The like results for `Cc1nc(-c2ccc([C@H](C)N3CC[C@](CC(C)(C)O)(c4ccccc4)OC3=O)cc2)sc1C` [EXAMPLE 181, (S)-3-{1-[4-(4,5-Dimethyl-thiazol-2-yl)-phenyl]-ethyl}-6-(2-hydroxy-2-methyl-propyl)-6-phenyl-[1,3]oxazinan-2-one] were, in that order, 7.8 µM, 5.6 µM and 8.2 µM.
Regarding `C[C@@H](c1ccc(-c2ccc([S+](C)[O-])nc2)cc1)N1CC[C@](CC(C)(C)O)(c2ccccc2)OC1=O` (stereo partly drawn) [EXAMPLE 182, (S)-6-(2-Hydroxy-2-methyl-propyl)-3-{(S)-1-[4-(6-methanesulfinyl-pyridin-3-yl)-phenyl]-ethyl}-6-phenyl-[1,3]oxazinan-2-one], the IC50 against CYP3A4, against CYP2C9 and at CYP2C19 was above 50 µM throughout.
The inhibition is the share of the control response that was lost under treatment. `C[C@@H](c1ccc(-c2ccc(S(C)(=O)=O)nc2)cc1)N1CC[C@](CC(C)(C)O)(c2ccccc2)OC1=O` [EXAMPLE 183, (S)-6-(2-Hydroxy-2-methyl-propyl)-3-{(S)-1-[4-(6-methanesulfonyl-pyridin-3-yl)-phenyl]-ethyl}-6-phenyl-[1,3]oxazinan-2-one]: the IC50 against CYP3A4 is above 50 µM; on CYP2C9, 45.7 µM; against CYP2C19, 47.4 µM; against 11β-HSD1 (setting [1]) it was 0.93 nM; against 11β-HSD1 (setting [2]), below 100 nM. Moreover, on 11β-HSD1, the inhibition at 0.1 µM turned out to be 96.4%.
As to `C[C@@H](c1ccc(-c2cc([S+](C)[O-])ccn2)cc1)N1CC[C@](CC(C)(C)O)(c2ccccc2)OC1=O` (stereo partly drawn) [EXAMPLE 184, (S)-6-(2-Hydroxy-2-methyl-propyl)-3-{(S)-1-[4-(4-methanesulfinyl-pyridin-2-yl)-phenyl]-ethyl}-6-phenyl-[1,3]oxazinan-2-one], the concentration for half-maximal inhibition (IC50) at CYP3A4, against CYP2C9 and at CYP2C19 was above 50 µM each time.
Take `C[C@@H](c1ccc(-c2cc(S(C)(=O)=O)ccn2)cc1)N1CC[C@](CC(C)(C)O)(c2ccccc2)OC1=O` [EXAMPLE 185, (S)-6-(2-Hydroxy-2-methyl-propyl)-3-{(S)-1-[4-(4-methanesulfonyl-pyridin-2-yl)-phenyl]-ethyl}-6-phenyl-[1,3]oxazinan-2-one]: the IC50 against CYP3A4 is 42.9 µM; at CYP2C9 it was 30 µM; on CYP2C19, 25.7 µM.
For `C[C@@H](c1ccc(-c2ccc(S(C)(=O)=O)cn2)cc1)N1CC[C@](CC(C)(C)O)(c2ccccc2)OC1=O` [EXAMPLE 186, (S)-6-(2-Hydroxy-2-methyl-propyl)-3-{(S)-1-[4-(5-methanesulfonyl-pyridin-2-yl)-phenyl]-ethyl}-6-phenyl-[1,3]oxazinan-2-one], the IC50 was above 50 µM at CYP3A4; above 50 µM on CYP2C9; 48.6 µM at CYP2C19; 0.9 nM against 11β-HSD1 (setting [1]); below 100 nM at 11β-HSD1 (setting [2]). At 11β-HSD1, the inhibition at 0.1 µM was 95.2%.
Take `C[C@@H](c1ccc(-c2ccnc(S(C)(=O)=O)c2)cc1)N1CC[C@](CC(C)(C)O)(c2ccccc2)OC1=O` [EXAMPLE 187, (S)-6-(2-Hydroxy-2-methyl-propyl)-3-{(S)-1-[4-(2-methanesulfonyl-pyridin-4-yl)-phenyl]-ethyl}-6-phenyl-[1,3]oxazinan-2-one]: the IC50 at CYP3A4 is above 50 µM; at CYP2C9, 25.9 µM; against CYP2C19, above 50 µM.
With `C[C@@H](c1ccc(-c2cncc(S(C)(=O)=O)c2)cc1)N1CC[C@](CC(C)(C)O)(c2ccccc2)OC1=O` [EXAMPLE 188, (S)-6-(2-Hydroxy-2-methyl-propyl)-3-{(S)-1-[4-(5-methanesulfonyl-pyridin-3-yl)-phenyl]-ethyl}-6-phenyl-[1,3]oxazinan-2-one], the half-maximal inhibitory concentration (IC50) at CYP3A4 is 42.4 µM; against CYP2C9 it was 21.2 µM; on CYP2C19 it was above 50 µM.
In the case of `C[C@@H](c1ccc(-c2cncc([S+](C)[O-])c2)cc1)N1CC[C@](CC(C)(C)O)(c2ccccc2)OC1=O` (stereo partly drawn) [EXAMPLE 189, (S)-6-(2-Hydroxy-2-methyl-propyl)-3-{(S)-1-[4-(5-methanesulfinyl-pyridin-3-yl)-phenyl]-ethyl}-6-phenyl-[1,3]oxazinan-2-one], the IC50 against CYP3A4, at CYP2C9 and at CYP2C19 was above 50 µM in each case.
Consider `C[C@@H](c1ccc(-c2cccc(S(C)(=O)=O)n2)cc1)N1CC[C@](CC(C)(C)O)(c2ccccc2)OC1=O` [EXAMPLE 190, (S)-6-(2-Hydroxy-2-methyl-propyl)-3-{(S)-1-[4-(6-methanesulfonyl-pyridin-2-yl)-phenyl]-ethyl}-6-phenyl-[1,3]oxazinan-2-one], for which the figures for the IC50 at CYP3A4, against CYP2C9 and on CYP2C19 were 33.7 µM, above 50 µM and above 50 µM, respectively.
Turning to `C[C@@H](c1ccc(-c2cccc([S+](C)[O-])n2)cc1)N1CC[C@](CC(C)(C)O)(c2ccccc2)OC1=O` (stereo partly drawn) [EXAMPLE 191, (S)-6-(2-Hydroxy-2-methyl-propyl)-3-{(S)-1-[4-(6-methanesulfinyl-pyridin-2-yl)-phenyl]-ethyl}-6-phenyl-[1,3]oxazinan-2-one], the IC50 on CYP3A4 was 36.4 µM; against CYP2C9, above 50 µM; against CYP2C19, above 50 µM.
For the compound `C[C@@H](c1ccc(-c2cnc(C3CC3)nc2)cc1)N1CC[C@](CC(C)(C)O)(c2ccccc2)OC1=O` [EXAMPLE 192, 3-{(S)-1-[4-(2-Cyclopropyl-pyrimidin-5-yl)-phenyl]-ethyl}-(S)-6-(2-hydroxy-2-methyl-propyl)-6-phenyl-[1,3]oxazinan-2-one], the IC50 against CYP3A4 amounted to 11.2 µM; against CYP2C9, 10.4 µM; at CYP2C19, 15.5 µM.
Consider `Cc1nn(C)cc1-c1ccc([C@H](C)N2CC[C@](CC(C)(C)O)(c3ccccc3)OC2=O)cc1` [EXAMPLE 193, 3-{(S)-1-[4-(1,3-Dimethyl-1H-pyrazol-4-yl)-phenyl]-ethyl}-(S)-6-(2-hydroxy-2-methyl-propyl)-6-phenyl-[1,3]oxazinan-2-one], for which the IC50 against CYP3A4 came out at 26.6 µM; at CYP2C9 it was 24.2 µM; on CYP2C19, 33.3 µM.

The values are drawn from US8569292B2, “Cyclic inhibitors of 11β-hydroxysteroid dehydrogenase 1” (Vitae Pharmaceuticals, Inc., priority 2008, dated 2013).
